# Measured values reported in patent US8604029B2, “2-[(2-substituted)-indolizin-3-yl]-2-oxo-acetamide derivatives as antifungal agents” (F2G Ltd British Body Corporate, priority 2006, dated 2013).
# Like-named read-outs stand apart in the source and are kept apart here.
# Tested on: Aspergillus fumigatus
# Experiment: MIC measurement, YAG medium
# Format: cell-based
# Conditions: Aspergillus fumigatus, read-out: MIC A. fumigatus
# Description: Between 1 and 5 mgs of compound were accurately weighed out into a sterile Eppendorf tube. The compound was dissolved in DMSO to give a solution containing […]. Tubes were stored at −20° C. until required.
# On the day of testing thawed solutions were vortex mixed to ensure homogeneity. 30 μL of solution was removed and added to 570 μL of sterile water in a separate sterile Eppendorf. The thoroughly mixed solution was used to prepare a series of doubling dilutions in water, in a deep well plate. Thirteen replicate plates were prepared using a Minitrak by aspirating 20 μL from each well into eleven clear polystyrene 96 well plates.
# Spores of Aspergillus spp. (Aspergillus fumigatus [two strains], Aspergillus terreus [two strains], Aspergillus niger and Aspergillus flavus) were harvested from cultures grown on Sabarauds agar for 5 days, and resuspended in PBS/Tween 80 to approx 1×10^7 cfu/mL. Other filamentous fungi (Absidia corymbifera, Fusarium solani, Rhizomucor, Scedosporium spp., Trichophyton spp.), were grown on Sabarauds agar for 2-10 days and spores/hyphae resuspended in PBS/Tween to give approx 1×10^7 cfu/mL. Candida species (Candida albicans, Candida glabrata, Candida krusei, Candida parapsilosis and Candida tropicalis) were grown on Sabarauds agar, cells were harvested from the agar using a sterile loop and resuspended in PBS/Tween 80 to approx 1×10^6 cfu/mL. Each organism suspension was diluted in RPMI medium, containing 2% glucose and 0.135 M MOPS buffer (pH 7.0) to 0.5-2×10^4 cfu/mL for Aspergillus spp. and other filamentous fungi and 0.5-2×10^3 cfu/mL for yeast. 80 μL of an organism suspension was added to each well of the plate containing drug dilutions.
# This produced MIC plates with a drug range 50-0.05 mg/L and organism inocula of 1-2×10^4 cfu/mL for Aspergillus spp. and other filamentous fungi and 1-2×10^3 cfu/mL for yeasts. All plates were incubated for 24-48 hrs at 35° C. Growth was assessed by monitoring the optical density at 485 nm for each well. The MIC of a compound is the lowest drug concentration that inhibits growth of an organism by >80% compared with a drug free control. MICs are recorded as mg/L. Other growth media can be used for susceptibility testing, and the activity of the described compounds can also be assessed in a medium comprising 1% glucose, 1% ammonium chloride and 0.5% yeast extract (YAG medium). To perform MIC tests in this medium, dilutions of compounds are prepared in microtitre plates as described above. Fungal strains to be tested are grown and harvested in an identical manner to that described above, each organism suspension is then diluted in YAG medium to 0.5-2×10^4 cfu/mL for Aspergillus spp. and other filamentous fungi and 0.5-2×10^3 cfu/mL for yeast. 80 μL of an organism suspension was added to each well of the plate containing drug dilutions. This produced MIC plates with a drug range 50-0.05 mg/L and organism inocula of 1-2×10^4 cfu/mL for Aspergillus spp. and other filamentous fungi and 1-2×10^3 cfu/mL for yeasts. All plates were incubated for 24 hrs at 35° C. Growth was assessed by monitoring the optical density at 485 nm for each well. The MIC of a compound is the lowest drug concentration that inhibits growth of an organism by >70% compared with a drug free control. MICs are recorded as mg/L. In cases where the MIC of an organism is […] mg/L the MIC is repeated using a concentration range of 0.5-0.0005 mg/L. MIC tests in YAG medium have more clear-cut endpoints and have slightly lower MICs than those performed in RPMI medium.
# The following organisms were tested: Absidia corymbifera, Aspergillus flavus, Aspergillus fumigatus AF293 and AF210, Aspergillus niger, Aspergillus terreus AT4 and AT49, Candida albicans, Candida glabrata, Candida krusei, Candida parapsilosis, Candida tropicalis, Fusarium solani, Rhizomucor sp., Scedosporium apiospermum, Scedosporium prolificans, Trichophyton mentagrophytes, and Trichophyton rubrum.
# [1] = YAG medium, MIC banded into grades, strain AF293
MIC [1] [µg/mL],Structure (SMILES),MIC [µg/mL]
< 1,"CON=C1CCN(c2ccc(NC(=O)C(=O)c3c(-c4ccccc4)cc4ccccn34)cc2)CC1 [Example 2, N-[4-(4-methoxyimino-piperidin-1-yl)-phenyl]-2-oxo-2-(2-phenyl-indolizin-3-yl)-acetamide]",
> 10,"COc1ccc(NC(=O)C(=O)c2c(C)c(-c3ccccc3)c3ccccn23)cc1 [Example 6, N-(4-methoxy-phenyl)-2-(2-methyl-1-phenyl-indolizin-3-yl)-2-oxo-acetamide]",
> 10,"Cc1c(-c2ccccc2)c2ccccn2c1C(=O)C(=O)Nc1ccc(N2CCOCC2)cc1 [Example 7, 2-(2-methyl-1-phenyl-indolizin-3-yl)-N-(4-morpholin-4-yl-phenyl)-2-oxo-acetamide]",
< 1,"CCC(CC)N1CCN(c2ccc(NC(=O)C(=O)c3c(-c4ccccc4Cl)cc4ccccn34)cn2)CC1 [Example 10, 2-[2-(2-chloro-phenyl)-indolizin-3-yl]-N-{6-[4-(1-ethyl-propyl)-piperazin-1-yl]-pyridin-3-yl}-2-oxo-acetamide]",
1 to 10,"Cc1cc(NC(=O)C(=O)c2c(-c3ccccc3)cc3ccccn23)ccc1OCCCn1ccnc1C(C)C [Example 12, N-{4-[3-(2-Isopropyl-imidazol-1-yl)-propoxy]-3-methyl-phenyl}-2-oxo-2-(2-phenyl-indolizin-3-yl)-acetamide]",
> 10,"CC(C)c1ncc(C(C)(C)c2cccc(NC(=O)C(=O)c3c(-c4ccccc4)cc4ccccn34)c2)n1C [Example 15, N-{3-[1-(2-Isopropyl-3-methyl-3H-imidazol-4-yl)-1-methyl-ethyl]-phenyl}-2-oxo-2-(2-phenyl-indolizin-3-yl)-acetamide]",
1 to 10,"CC(C)c1nc(C(C)(C)c2ccc(NC(=O)C(=O)c3c(-c4ccccc4)cc4ccccn34)cc2)cn1C [Example 16, N-{4-[1-(2-isopropyl-1-methyl-1H-imidazol-4-yl)-1-methyl-ethyl]-phenyl}-2-oxo-2-(2-phenyl-indolizin-3-yl)-acetamide]",
> 10,"CC(C)c1nccn1CCOC(=O)C(C)(C)c1ccc(NC(=O)C(=O)c2c(-c3ccccc3)cc3ccccn23)cc1 [Example 18, 2-methyl-2-{4-[2-oxo-2-(2-phenyl-indolizin-3-yl)-acetylamino]-phenyl}-propionic acid 2-(2-isopropyl-imidazol-1-yl)-ethyl ester]",
1 to 10,"Cc1nccn1CCCOc1ccc(NC(=O)C(=O)c2c(-c3ccccc3)cc3ccccn23)cc1C(C)C [Example 20, N-{3-Isopropyl-4-[3-(2-methyl-imidazol-1-yl)-propoxy]-phenyl}-2-oxo-2-(2-phenyl-indolizin-3-yl)-acetamide]",
< 1,"O=C(Nc1ccc(N2CCC3(CC2)OCCO3)cc1)C(=O)c1c(-c2ccccc2)cc2ccccn12 [Example 23, N-[4-(1,4-dioxa-8-aza-spiro[4.5]dec-8-yl)-phenyl}-2-oxo-2-(2-phenyl-indolizine-3-yl)-acetamide]",
< 1,"Cc1cc(C)nc(N2CCN(c3ccc(NC(=O)C(=O)c4c(-c5ccccc5)cc5ccc(F)cn45)cc3)CC2)c1 [Example 32, N-{4-[4-(4,6-Dimethyl-pyridin-2-yl)-piperazin-1-yl]-phenyl}-2-(6-fluoro-2-phenyl-indolizin-3-yl)-2-oxo-acetamide]",
> 10,"C=C(C)CN1CCN(c2ccc(NC(=O)C(=O)c3c(-c4ccc(N5CCOCC5)cc4)cc4ccccn34)cc2)CC1 [Example 40, N-{4-[4-(2-Methyl-allyl)-piperazin-1-yl]-phenyl}-2-[2-(4-morpholin-4-yl-phenyl)-indolizin-3-yl]-2-oxo-acetamide]",

# More lines, now with the values behind:
Structure (SMILES),MIC [1] [µg/mL],MIC [µg/mL]
"O=C(Nc1ccc(N2CCS(=O)(=O)CC2)cc1)C(=O)c1c(-c2ccccc2)cc2ccccn12 [Example 1, N-[4-(1,1-Dioxo-1λ^6-thiomorpholin-4-yl)-phenyl]-2-oxo-2-(2-phenyl-indolizin-3-yl)-acetamide]",> 10,
"O=C(Nc1ccccc1F)C(=O)c1c(-c2ccccc2)cc2ccc3ccccc3n12 [Example 4, N-(2-fluoro-phenyl)-2-oxo-2-(2-phenyl-pyrrolo[1,2-a]quinolin-1-yl)-acetamide]",> 10,
"CS(=O)(=O)NC(=O)c1ccc(NC(=O)C(=O)c2c(-c3ccccc3)cc3ccccn23)cc1 [Example 5, N-(4-methanesulfonylaminocarbonyl-phenyl)-2-oxo-2-(2-phenyl-indolizin-3-yl)-acetamide]",> 10,
"CN1/C(=N/c2ccc(NC(=O)C(=O)c3c(-c4ccccc4)cc4ccccn34)cc2)OCC1(C)C [Example 8, 2-oxo-2-(2-phenyl-indolizin-3-yl)-N-{4-[3,4,4-trimethyl-oxazolidin-(2Z)-ylideneamino]-phenyl}-acetamide]",> 10,
"O=C1Cc2cc(NC(=O)C(=O)c3c(-c4ccccc4)cc4ccccn34)ccc2N1 [Example 9, 2-Oxo-N-(2-oxo-2,3-dihydro-1H-indol-5-yl)-2-(2-phenyl-indolizin-3-yl)-acetamide]",,> 10
"O=C(Nc1ccc(C(=O)OC2CCOCC2)c(O)c1)C(=O)c1c(-c2ccccc2)cc2ccccn12 [Example 11, 2-hydroxy-4-[2-oxo-2-(2-phenyl-indolizin-3-yl)-acetylamino]-benzoic acid tetrahydro-pyran-4-yl ester]",< 1,
"CC(C)c1nc(C(C)(C)c2cccc(NC(=O)C(=O)c3c(-c4ccccc4)cc4ccccn34)c2)cn1C [Example 14, N-{3-[1-(2-Isopropyl-1-methyl-1H-imidazol-4-yl)-1-methyl-ethyl]-phenyl}-2-oxo-2-(2-phenyl-indolizin-3-yl)-acetamide]",> 10,
"CC(C)c1ncc(C(C)(C)c2ccc(NC(=O)C(=O)c3c(-c4ccccc4)cc4ccccn34)cc2)n1C [Example 17, N-{4-[1-(2-Isopropyl--3-methyl-3H-imidazol-4-yl)-1-methyl-ethyl]-phenyl}-2-oxo-2-(2-phenyl-indolizin-3-yl)-acetamide]",> 10,
"CN1CCN(c2ccc(NC(=O)C(=O)c3c(-c4ccccc4)cc4ccccn34)cc2-c2ncco2)CC1 [Example 19, N-[4-(4-methyl-piperazin-1-yl)-3-oxazol-2-yl-phenyl]-2-oxo-2-(2-phenyl-indolizin-3-yl)-acetamide]",> 10,
"Cc1cc(C)nc(N2CCN(c3ccc(NC(=O)C(=O)c4c(-c5ccccc5)cc5ccccn45)cc3)CC2)c1 [Example 21, N-{4-[4-(4,6-Dimethyl-pyridin-2-yl)-piperazin-1-yl]-phenyl}-2-oxo-2-(2-phenyl-indolizin-3-yl)-acetamide]",< 1,
"CC(C)c1nccn1CCOC(=O)C(C)(C)c1cccc(NC(=O)C(=O)c2c(-c3ccccc3)cc3ccccn23)c1 [Example 22, 2-Methyl-2-{3-[2-oxo-2-(2-phenyl-indolizin-3-yl)-acetylamino]-phenyl}-propionic acid 2-(2-isopropyl-imidazol-1-yl)-ethyl ester]",> 10,
"CCN(CC)C(=O)Oc1cc(-c2ccc(NC(=O)C(=O)c3c(-c4ccccc4)cc4ccccn34)cc2)on1 [Example 27, Diethyl-carbamic acid-5-{4-[2-oxo-2-(2-phenyl-indolizin-3-yl)-aeetylamino]-phenyl}-isoxazol-3-yl ester]",,< 1
"O=C(Nc1ccc(N2CCN(CCc3ccco3)CC2)cc1)C(=O)c1c(-c2ccccc2)cc2ccccn12 [Example 39, N-{4-[4-(2-Furan-2-yl-ethyl)-piperazin-1-yl]-phenyl}-2-oxo-2-(2-phenyl-indolizin-3-yl)-acetamide]",< 1,
